Source: patent US10183008B2, “Treatment of prolonged status epilepticus” (University of South Carolina, priority 2011, dated 2019)

Assays:
[1] = tested on: tonic inhibition (GABAergic tonic current); test: Brain slice whole-cell electrophysiology: tonic current in dentate granule cells; format: cell-based, rat; settings: for effect on tonic inhibition: 1 μM DZP, 100 μM STP
[2] = tested on: lithium-pilocarpine model of S.E.; test: Lithium-pilocarpine model of status epilepticus, behavioral seizure scoring (Racine scale); format: in vivo, rat; settings: for termination of brief behavioral convulsions: postnatal 20-25 day male rats, drug i.p. at onset of first stage 3 convulsion, score 15 min after
Procedure: The ED50 was determined based on the fit of the sigmoidal dose-response curve.
Experiments were performed on male rats age 5-65 days. SE was induced using lithium pilocarpine. Brief SE was defined as the onset of stage 3 seizures. Prolonged SE was defined as 45 minutes of SE following the first stage 3 seizure.
Status epilepticus was induced in male Sprague Dawley rats (5-65 days old; Harlan Sprague Dawley, Indianapolis, Ind.) by intraperitoneal injection of lithium chloride (LiCl) at 127 mg/kg followed 15-20 hr later by scopolamine methylbromide (2 mg/kg) and then pilocarpine at 60 mg/kg. After pilocarpine injection, the rats were observed continuously for occurrence of behavioral seizures. Seizures were scored according to the Racine scale with slight modifications: 0-normal behavior; 1-immobile, staring, curled-up posture; 2-automatisms: repetitive blinking, chewing, headbobbing, vibrissae twitching, scratching, face-washing; 3-forelimb/hindlimb myoclonic jerking, head tremor; 4-rearing, whole body clonus; 5-loss of posture, rearing and falling. EEG recordings, have established that the cortical electrographic onset of SE corresponds to the onset of forelimb clonus, or stage 3 seizures. Therefore, diazepam or stiripentol was administered either at the onset of S3 seizures (brief SE) or 45 min after S3 seizure onset (prolonged SE). The seizure scores were taken continuously, but specifically 15 mins after the first S3 seizure, and 15 mins after treatment. The scores represented in the data were recorded 15 minutes following treatment. Solutions of lithium, scopolamine, pilocarpine and stiripentol were made fresh on the day of the experiments. Lithium, scopolamine and pilocarpine were dissolved in 0.9% saline. Stiripentol was dissolved in 20% propylene glycol and 80% ethanol. Diazepam was purchased commercially in a solution of 10% propylene glycol and 80% ethanol. All drugs were administered via intraperitoneal (i.p) injection.

prolonged SE = settings: 45 minutes after onset; cited from earlier work
[3] = tested on: GABAAR subunit combinations; settings: STP 100 μM, GABA 0.3 μM, n=5-9, HEK-293T; cited from earlier work

Structure (SMILES) | effect on tonic inhibition [1] | potentiation of tonic current during prolonged SE ([1]; prolonged SE, DZP 1 μM, STP 100 μM, n=3-4) | termination of brief behavioral convulsions [2] | pharmacoresistance following prolonged SE (shift of ED50 for seizure termination) ([2]; prolonged SE (45 min after stage 3 onset) vs brief SE) | fold decrease in efficacy at terminating prolonged SE (prolonged SE) | anticonvulsant effect in 60-65 compared to 20-25 day old rats ([2]; age comparison) | effect on GABA current [3]
CN1C(=O)CN=C(c2ccccc2)c2cc(Cl)ccc21 [DZP, diazepam] | increase tonic inhibition | less effective at potentiating tonic current | terminate brief behavioral convulsions | develops pharmacoresistance | 9-10 fold | – | –
CC(C)(C)C(O)/C=C/c1ccc2c(c1)OCO2 (stereo not drawn) [STP, 1-(3,4-methylenedioxyphenyl)-4,4-dimethylpent-1-en-3-ol] | increase tonic inhibition | – | terminate brief behavioral convulsions | – | – | reduced | increases GABA (0.3 μM) current at all tested GABAAR subunit combinations
